This passage reports IC50 results from patent US10322131B2, “Hydroxyacid derivatives, a process for their preparation and pharmaceutical compositions containing them” (LES LABORATOIRES SERVIER, priority 2015, dated 2019).

The structures appear in SMILES notation. Structures can show the parent of a compound that is named as a salt.

Assay [1] has as its target Mcl-1 protein (Homo sapiens, UniProt Q07820). Description: Inhibition of Mcl-1 by the fluorescence polarisation technique. In kind it is binding. Conditions: fluorescence polarisation test; Fluorescein labelled ligand 1 nM, Mcl-1 protein 5 nM, ~2 hours at r.t.; read-out: IC50 (M) Mcl-1 FP. Put shortly:
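Competitive FP displacement of fluorescein-labelled peptide ligand (1 nM final) from Mcl-1 (5 nM final) in HEPES 10 mM, 150 mM NaCl, 0.05% Tween 20, pH 7.4, 5% DMSO final. Read after ~2 h at r.t.; IC50 from 11-point 4-parameter logistic fit of % mP reduction.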
(Polarisation of emitted light reports the rotation of a fluorescent probe.)

Assay [2] concerns H929 cells. In words: In vitro cytotoxicity (MTT) on H929 multiple myeloma tumour line. In kind it is cell-based. Particulars: exposed 48 hours, Microculture Tetrazolium Assay. The protocol: The cytotoxicity studies were carried out on the H929 multiple myeloma tumour line.
The cells are distributed onto microplates and exposed to the test compounds for 48 hours.
The cell viability is then quantified by a colorimetric assay, the Microculture Tetrazolium Assay (Cancer Res., 1987, 47, 939-942).

Sequence of Mcl-1 protein (Q07820 whole entry): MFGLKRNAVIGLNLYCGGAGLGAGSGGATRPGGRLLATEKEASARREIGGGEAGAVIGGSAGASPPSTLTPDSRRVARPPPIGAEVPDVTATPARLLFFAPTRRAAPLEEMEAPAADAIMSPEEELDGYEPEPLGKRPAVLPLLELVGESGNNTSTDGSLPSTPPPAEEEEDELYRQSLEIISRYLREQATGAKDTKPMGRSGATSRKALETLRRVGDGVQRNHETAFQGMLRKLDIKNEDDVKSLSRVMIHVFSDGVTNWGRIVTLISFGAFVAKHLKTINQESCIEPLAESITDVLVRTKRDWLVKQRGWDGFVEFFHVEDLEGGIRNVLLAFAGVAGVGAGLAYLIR

As usually defined, the IC50 is the concentration needed to halve the response being measured. `Cc1c(-c2c(-c3ccc(F)cc3)sc3ncnc(OC(Cc4ccccc4OCc4ccnc(-c5ccc(OP(=O)(O)O)cc5)n4)C(=O)O)c23)ccc(OCCN2CCN(C)CC2)c1Cl` [Example 57, 4-[4-({2-[(2R)-2-carboxy-2-{[(5Sa)-5-{3-chloro-2-methyl-4-[2-(4-methylpiperazin-1 yl)ethoxy]phenyl}-6-(4-fluorophehnyl)thieno[2,3-d]pyrimidin-4-yl]oxy}ethyl]phenoxy}methyl)pyrimidin-2-yl]phenyl phosphate disodium salt]: the values for the IC50 in assay [1] and in assay [2] were 4.6e-09 M and 22.7 nM, respectively.
